Assay: Solubilization of the compounds in solvents/solubilizers and clarity in lemon-lime beverage
Format: physicochemical
Conditions: for Time final beverage remained a clear solution: sucrose co-melt (caramel-melts), Q-NATURALE® 200
Description: To identify a sufficient delivery mechanism for the sweet enhacing compounds of the present invention, several method of solublization were tested for use in clear beverages. The overall goal was to solubilize the compounds of the invention and have them be deliverable in a clear, carbonated beverage, which can be sweetened with various forms of nutritive and non-nutritive sweeteners without negative flavor impact, i.e. no loss in efficacy (the sweetness perception increase) and no off-flavor formation. In particular, the goal was to identify a delivery mechanism that would allow the compounds to be delivered to the beverage at an “as consumed” level between 10 ppm and 50 ppm. […] The carrier ingredients should not impart any negative physical attributes or negative flavor attributes to the product. An ideal delivery system would not require the labeling of any carrier ingredients and would work with a beverage concentrate model system, preferably a 1+5 concentrate throw.
Initial trials were conducted to dissolve the compound in various flavor type solvents, including ethanol, 200 proof; triacetin; propylene glycol; lemon-lime flavor extract; lemon oil (washed); citrus oil; polysorbate 80; polysorbate 60; polysorbate 20; benzyl alcohol; and NEOBEE® M-5 oil.
In polysorbate formulations, Compound 3 and the polysorbates were accurately weighed into screw-capped glass vials according to Table 8 and heated at 70-90° C. and vortex mixed to facilitate the solubilization. The resulting mixtures were blended into 41.5 brix lemon-lime flavored beverage syrup under stirring and stored overnight at room temperature. The syrup was diluted with 5× water to achieve the final 7.7 brix lemon-lime beverage.
For example, Compound 3 and polysorbate 80 were accurately weighed into screw-capped glass vials according to Table 9 and heated at 70-90° C. and vortex mixed to facilitate the solubilization. Q-[…]® was added to the 41.5 brix lemon-lime flavored beverage syrup. The polysorbate 80 mixtures were blended into 41.5 brix lemon-lime flavored beverage syrup with Q-[…]® 200 and vortex mixed at 3000 rpm for 75 seconds. The resulting syrups were stored overnight at room temperature. The syrup was then diluted with 5× water to achieve the final 7.7 brix lemon-lime beverage. […] Solution PQ2 was able to maintain clear solution for 1 month.
Because Q-[…]® was able to maintain the stability of the sweet enhancing compounds, it was evaluated in combination with additional solvents. […] In another example, Compound 3, Q-[…]®, and either 1,2-propylene glycol or ethanol 200 proof were accurately weighed into screw-capped glass vials according to Table 10 and heated and vortex mixed to facilitate the solubilization. The resulting solution mixtures were blended into 41.5 brix lemon-lime flavored beverage syrup and vortexed at 3000 rpm for 75 seconds. The resulting syrups were stored overnight at refrigerated temperature and diluted with 5× water to achieve the final 7.7 brix lemon-lime beverage. All solutions (i.e., PGEQ1-PGEQ4) were able to maintain clear solution for 33 days at room temperature and 14 days at refrigerated temperature.
In another example, 40 mg Compound 3 and 1 g rubusoside were weighed into 20 ml glass vials. 20 ml water was added to the vial, which was vortex mixed slightly to form a suspension solution. The suspension was homogenized at 8000 rpm using a Silverson L5M-A to from an emulsion. The emulsion was heated at 121° C. for 1 h. The sample after heating was suspended at room temperature for 24 h to equilibrate and was filtered afterward. The weight ratio between rubusoside and Compound 3 was determined to be 147:1. Therefore, […] rubusoside was needed to solubilize 25 ppm Compound 3.
The ability of sugar to co-melt with compounds of the invention was also evaluated. 30 mg Compound 3 and 150 mg sucrose were dissolved in a solvent mixture of 9 ml ethanol and 1 ml water. […]

[1] = heated at 70-90° C., vortex mixed

COc1ccc(C2CC(=O)c3c(O)cccc3O2)cc1O (single isomer, unassigned) [Compound 3, 5-hydroxy-2-(3-hydroxy-4-methoxyphenyl)chroman-4-one]
Precipitation of final beverages (encapsulated with alpha-, beta-, gamma-cyclodextrin (molar 1:1, 1:2, 1:4), 25 ppm in 7.7 brix lemon-lime beverage): had precipitates | Dissolution in polysorbate 20 [1]: did not dissolve | Dissolution in polysorbate 60 [1]: did not dissolve | Precipitation in final beverages (polysorbate 80 solutions PS1-PS6, 7.7 brix lemon-lime beverage): precipitated overnight | Time final beverage remained a clear solution (7.7 brix lemon-lime beverage, refrigerated temperature): 14 days | Time final beverage remained a clear solution (7.7 brix lemon-lime beverage, room temperature): 30 days

— patent US20160015064A1, “COMPOUNDS, COMPOSITIONS, AND METHODS FOR MODULATING SWEET TASTE” (CHROMOCELL CORPORATION, priority 2013, published 2016)
